Measured values published in patent publication US10131652B2, “Pyrimidinyloxy benzene derivatives as herbicides” (E. I. DU PONT DE NEMOURS AND COMPANY, priority 2014, dated 2018).

Tests used:
Assay type in all cases: in vivo
[1] = test system: Italian ryegrass (Lolium multiflorum); assay: Test B pre-/postemergence plant response
Outline: (§1)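 Scoring used a 0–100 scale (100 = complete control) by visual comparison with untreated plants after approximately 10 days in the greenhouse. Compounds, in surfactant-containing non-phytotoxic solvent, were sprayed onto soil at planting or onto 2–10 cm seedlings.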

[2] = test system: barnyardgrass (Echinochloa crus-galli); assay: Test B pre-/postemergence plant response
Outline: as §1

[3] = test system: corn (Zea mays); assay: Test B pre-/postemergence plant response
Outline: as §1

[4] = test system: giant foxtail (Setaria faberii); assay: Test B pre-/postemergence plant response
Outline: as §1

[5] = test system: kochia (Kochia scoparia); assay: Test B pre-/postemergence plant response
Outline: as §1

[6] = test system: pigweed (Amaranthus retroflexus); assay: Test B pre-/postemergence plant response
Outline: as §1

[7] = test system: ragweed (common ragweed, Ambrosia elatior); assay: Test B pre-/postemergence plant response
Outline: as §1

[8] = test system: wheat (Triticum aestivum); assay: Test B pre-/postemergence plant response
Outline: as §1

[9] = test system: blackgrass (Alopecurus myosuroides); assay: Test B postemergence plant response
Outline: (§2)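 Pots, loam soil + sand; postemergence treatment at 1–2 leaf stage, 2–10 cm; greenhouse ~10 d; visual injury score 0 (none) to 100 (complete control) relative to untreated controls.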

[10] = test system: galium (catchweed bedstraw, Galium aparine); assay: Test B postemergence plant response
Outline: as §2

[11] = test system: barnyardgrass (Echinochloa crus-galli); assay: Test C flooded paddy test plant response; conditions: Flood, 250 g ai/ha; scale of 0 to 100 where 0 is no effect and 100 is complete control; 13 to 15 days
Outline: (§3)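 Scale 0 (no effect) to 100 (complete control), assigned visually versus controls after 13–15 d greenhouse. Application: directly to paddy water, 3 cm flood depth kept constant, 2-leaf stage.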

[12] = test system: ducksalad (Heteranthera limosa); assay: Test C flooded paddy test plant response; conditions: Flood, 250 g ai/ha; scale of 0 to 100 where 0 is no effect and 100 is complete control; 13 to 15 days
Outline: as §3

[13] = test system: rice (Oryza sativa); assay: Test C flooded paddy test plant response; conditions: Flood, 250 g ai/ha; scale of 0 to 100 where 0 is no effect and 100 is complete control; 13 to 15 days
Outline: as §3

[14] = test system: small-flower umbrella sedge (Cyperus difformis); assay: Test C flooded paddy test plant response; conditions: Flood, 250 g ai/ha; scale of 0 to 100 where 0 is no effect and 100 is complete control; 13 to 15 days
Outline: as §3

[15] = 31 g ai/ha, Preemergence, 0 to 100 scale where 0 is no effect and 100 is complete control
[16] = 125 g ai/ha, postemergence, 0 to 100 scale, 0 no effect, 100 complete control
[17] = Postemergence, 31 g ai/ha, 0 to 100 scale (0 no effect, 100 complete control)
[18] = Preemergence, 125 g ai/ha, 0 to 100 scale (0 no effect, 100 complete control)
[19] = Postemergence, 500 g ai/ha, 0 to 100 scale (0 no effect, 100 complete control)
[20] = Preemergence, 500 g ai/ha, 0 to 100 scale where 0 is no effect and 100 is complete control
[21] = Postemergence, 1000 g ai/ha, 0 to 100 scale (0 no effect, 100 complete control)
[22] = Preemergence, 1000 g ai/ha, 0 to 100 scale (0 no effect, 100 complete control)

Clc1cnc(Oc2ccccc2-c2cc(Cl)cnn2)nc1 [Compound 189]
Plant response rating, Ryegrass, Italian [1, 15]: 0
Plant response rating, Ryegrass, Italian [1, 16]: 0
Plant response rating, Ryegrass, Italian [1, 17]: 0
Ryegrass, Italian plant response rating [1, 18]: 0
Plant response rating, Barnyardgrass [2, 15]: 0
Plant response rating, Barnyardgrass [2, 16]: 0
Plant response rating, Barnyardgrass [2, 17]: 0
Barnyardgrass plant response rating [2, 18]: 0
Plant response rating, Corn [3, 16]: 0
Plant response rating, Corn [3, 17]: 0
Plant response rating, Foxtail, Giant [4, 15]: 0
Plant response rating, Foxtail, Giant [4, 16]: 0
Plant response rating, Foxtail, Giant [4, 17]: 0
Foxtail, Giant plant response rating [4, 18]: 0
Plant response rating, Kochia [5, 15]: 0
Plant response rating, Kochia [5, 16]: 0
Plant response rating, Kochia [5, 17]: 0
Kochia plant response rating [5, 18]: 0
Plant response rating, Pigweed [6, 15]: 0
Plant response rating, Pigweed [6, 16]: 0
Plant response rating, Pigweed [6, 17]: 0
Pigweed plant response rating [6, 18]: 0
Plant response rating, Ragweed [7, 15]: 0
Plant response rating, Ragweed [7, 16]: 0
Plant response rating, Ragweed [7, 17]: 0
Ragweed plant response rating [7, 18]: 0
Plant response rating, Wheat [8, 16]: 0
Plant response rating, Wheat [8, 17]: 0
Plant response rating, Blackgrass [9, 16]: 0
Plant response rating, Blackgrass [9, 17]: 0
Plant response rating, Galium [10, 16]: 0
Plant response rating, Galium [10, 17]: 0
Barnyardgrass plant response rating [11]: 0
Ducksalad plant response rating [12]: 0
Rice plant response rating [13]: 0
Sedge, Umbrella plant response rating [14]: 0

Clc1cnc(Oc2ccccc2-c2cc(Cl)ncn2)nc1 [Compound 190]
Plant response rating, Ryegrass, Italian [1, 16]: 0
Plant response rating, Ryegrass, Italian [1, 19]: 0
Ryegrass, Italian plant response rating [1, 18]: 0
Plant response rating, Ryegrass, Italian [1, 20]: 0
Plant response rating, Barnyardgrass [2, 16]: 0
Plant response rating, Barnyardgrass [2, 19]: 0
Barnyardgrass plant response rating [2, 18]: 0
Plant response rating, Barnyardgrass [2, 20]: 0
Plant response rating, Corn [3, 16]: 0
Plant response rating, Corn [3, 19]: 0
Plant response rating, Foxtail, Giant [4, 16]: 0
Plant response rating, Foxtail, Giant [4, 19]: 0
Foxtail, Giant plant response rating [4, 18]: 0
Plant response rating, Foxtail, Giant [4, 20]: 10
Plant response rating, Kochia [5, 16]: 0
Plant response rating, Kochia [5, 19]: 0
Kochia plant response rating [5, 18]: 0
Plant response rating, Kochia [5, 20]: 0
Plant response rating, Pigweed [6, 16]: 0
Plant response rating, Pigweed [6, 19]: 20
Pigweed plant response rating [6, 18]: 0
Plant response rating, Pigweed [6, 20]: 10
Plant response rating, Ragweed [7, 16]: 10
Plant response rating, Ragweed [7, 19]: 10
Ragweed plant response rating [7, 18]: 0
Plant response rating, Ragweed [7, 20]: 0
Plant response rating, Wheat [8, 16]: 0
Plant response rating, Wheat [8, 19]: 0
Plant response rating, Blackgrass [9, 16]: 0
Plant response rating, Blackgrass [9, 19]: 0
Plant response rating, Galium [10, 16]: 0
Plant response rating, Galium [10, 19]: 10
Barnyardgrass plant response rating [11]: 0
Ducksalad plant response rating [12]: 0
Rice plant response rating [13]: 0
Sedge, Umbrella plant response rating [14]: 0

Fc1cnc(Oc2ccccc2-c2cc(Cl)sn2)nc1 [Compound 193]
Plant response rating, Ryegrass, Italian [1, 21]: 30
Plant response rating, Ryegrass, Italian [1, 22]: 0
Plant response rating, Barnyardgrass [2, 21]: 90
Plant response rating, Barnyardgrass [2, 22]: 100
Plant response rating, Corn [3, 21]: 10
Plant response rating, Foxtail, Giant [4, 21]: 90
Plant response rating, Foxtail, Giant [4, 22]: 100
Plant response rating, Kochia [5, 21]: 100
Plant response rating, Kochia [5, 22]: 100
Plant response rating, Pigweed [6, 21]: 100
Plant response rating, Pigweed [6, 22]: 100
Plant response rating, Ragweed [7, 21]: 90
Plant response rating, Ragweed [7, 22]: 80
Plant response rating, Wheat [8, 21]: 20
Plant response rating, Blackgrass [9, 21]: 90
Plant response rating, Galium [10, 21]: 100
Barnyardgrass plant response rating [11]: 0
Ducksalad plant response rating [12]: 65
Rice plant response rating [13]: 0
Sedge, Umbrella plant response rating [14]: 0

Cc1cnc(Oc2ccccc2-c2cc(Cl)sn2)nc1 [Compound 194]
Plant response rating, Ryegrass, Italian [1, 21]: 50
Plant response rating, Ryegrass, Italian [1, 22]: 50
Plant response rating, Barnyardgrass [2, 21]: 100
Plant response rating, Barnyardgrass [2, 22]: 100
Plant response rating, Corn [3, 21]: 60
Plant response rating, Foxtail, Giant [4, 21]: 90
Plant response rating, Foxtail, Giant [4, 22]: 100
Plant response rating, Kochia [5, 21]: 100
Plant response rating, Kochia [5, 22]: 100
Plant response rating, Pigweed [6, 21]: 90
Plant response rating, Pigweed [6, 22]: 100
Plant response rating, Ragweed [7, 21]: 80
Plant response rating, Ragweed [7, 22]: 30
Plant response rating, Wheat [8, 21]: 20
Plant response rating, Blackgrass [9, 21]: 90
Plant response rating, Galium [10, 21]: 100
Barnyardgrass plant response rating [11]: 0
Ducksalad plant response rating [12]: 80
Rice plant response rating [13]: 0
Sedge, Umbrella plant response rating [14]: 0

C=C(C)c1cc(-c2ccccc2Oc2ncc(Cl)cn2)on1 [Compound 196]
Plant response rating, Ryegrass, Italian [1, 15]: 0
Plant response rating, Ryegrass, Italian [1, 16]: 0
Plant response rating, Ryegrass, Italian [1, 17]: 0
Ryegrass, Italian plant response rating [1, 18]: 0
Plant response rating, Barnyardgrass [2, 15]: 0
Plant response rating, Barnyardgrass [2, 16]: 10
Plant response rating, Barnyardgrass [2, 17]: 0
Barnyardgrass plant response rating [2, 18]: 10
Plant response rating, Corn [3, 16]: 0
Plant response rating, Corn [3, 17]: 0
Plant response rating, Foxtail, Giant [4, 15]: 0
Plant response rating, Foxtail, Giant [4, 16]: 10
Plant response rating, Foxtail, Giant [4, 17]: 0
Foxtail, Giant plant response rating [4, 18]: 20
Plant response rating, Kochia [5, 15]: 0
Plant response rating, Kochia [5, 16]: 40
Plant response rating, Kochia [5, 17]: 0
Kochia plant response rating [5, 18]: 0
Plant response rating, Pigweed [6, 15]: 0
Plant response rating, Pigweed [6, 16]: 60
Plant response rating, Pigweed [6, 17]: 20
Pigweed plant response rating [6, 18]: 10
Plant response rating, Ragweed [7, 15]: 0
Plant response rating, Ragweed [7, 16]: 20
Plant response rating, Ragweed [7, 17]: 10
Ragweed plant response rating [7, 18]: 0
Plant response rating, Wheat [8, 16]: 0
Plant response rating, Wheat [8, 17]: 0
Plant response rating, Blackgrass [9, 16]: 0
Plant response rating, Blackgrass [9, 17]: 0
Plant response rating, Galium [10, 16]: 100
Plant response rating, Galium [10, 17]: 60
Barnyardgrass plant response rating [11]: 30
Ducksalad plant response rating [12]: 55
Rice plant response rating [13]: 0
Sedge, Umbrella plant response rating [14]: 70

C=C(C)c1cc(-c2ccccc2Oc2ncc(Br)cn2)on1 [Compound 197]
Plant response rating, Ryegrass, Italian [1, 15]: 0
Plant response rating, Ryegrass, Italian [1, 16]: 0
Plant response rating, Ryegrass, Italian [1, 17]: 0
Ryegrass, Italian plant response rating [1, 18]: 0
Plant response rating, Barnyardgrass [2, 15]: 0
Plant response rating, Barnyardgrass [2, 16]: 0
Plant response rating, Barnyardgrass [2, 17]: 0
Barnyardgrass plant response rating [2, 18]: 0
Plant response rating, Corn [3, 16]: 0
Plant response rating, Corn [3, 17]: 0
Plant response rating, Foxtail, Giant [4, 15]: 0
Plant response rating, Foxtail, Giant [4, 16]: 0
Plant response rating, Foxtail, Giant [4, 17]: 0
Foxtail, Giant plant response rating [4, 18]: 0
Plant response rating, Kochia [5, 15]: 0
Plant response rating, Kochia [5, 16]: 0
Plant response rating, Kochia [5, 17]: 0
Kochia plant response rating [5, 18]: 0
Plant response rating, Pigweed [6, 15]: 0
Plant response rating, Pigweed [6, 16]: 10
Plant response rating, Pigweed [6, 17]: 10
Pigweed plant response rating [6, 18]: 0
Plant response rating, Ragweed [7, 15]: 0
Plant response rating, Ragweed [7, 16]: 0
Plant response rating, Ragweed [7, 17]: 0
Ragweed plant response rating [7, 18]: 0
Plant response rating, Wheat [8, 16]: 0
Plant response rating, Wheat [8, 17]: 0
Plant response rating, Blackgrass [9, 16]: 0
Plant response rating, Blackgrass [9, 17]: 0
Plant response rating, Galium [10, 16]: 50
Plant response rating, Galium [10, 17]: 10
Barnyardgrass plant response rating [11]: 20
Ducksalad plant response rating [12]: 0
Rice plant response rating [13]: 0
Sedge, Umbrella plant response rating [14]: 0
